From patent US20060002870A1 (priority 2004, published 2006)

Tested on: skin
Test: Clinical study of intensity and tonality of self-tanning with merospheres, empty liposomes and ursolic acid (Chromameter, forearms)
Type: in vivo, human
Conditions: added to 3% DHA, 5% pentylene glycol; 5 hours and 24 hours; FIG. 7
Experimental: This clinical study is designed to investigate the intensity and tonality of self-tanning with a formulation containing different combination of merospheres, empty liposomes and ursolic acid. The following materials are tested: A total of […] panelists participate in the study. The panel is divided in seven groups of 7-8 corresponding to the seven test materials. The panelists apply the “control” formulation containing 3% DHA-PG on the right arm and the assigned test material on the other arm. For each panelist exact amounts (800 μl each) of the test materials are dispensed on the forearms and blended in by the panelists. Color measurements are obtained with the Chromameter before treatment and 5 hours and 24 hours. Decrease in reflectance and increase in red coloration and yellow coloration (ΔL*, Δa* and Δb* values) obtained from the Chromameter are calculated as compared to baseline skin color. Total color change ΔE* is calculated for each time point as follows: ΔE*={overscore (V(ΔL*)^2+(Δa*)^2+(Δb)}*)^2 For assessing the tonality, Chroma (ΔC*) is calculated and plotted against reflectance (ΔL* values) within the “Natural Universe of Tan”. This Natural Universe is the range of color of tan obtained by multiple or single exposures to the sun.

C[C@H]1[C@H](C)CC[C@]2(C(=O)O)CC[C@]3(C)C(=CC[C@@H]4[C@@]5(C)CC[C@H](O)C(C)(C)[C@@H]5CC[C@]43C)[C@H]12 [ursolic acid]
Self-tanning effect (ΔE*): neither addition of empty liposomes nor ursolic acid alone changes the self-tanning effect
